Data published in US4851416A, “Berban derivatives as α2 -adrenergic antagonists” (priority 1985, dated 1989).
Structures can show the parent of a compound that is named as a salt. Where two headings read alike, the source gives them in different places. One block for each compound: values may come before it.

How the values were obtained:
[1] = target: T1, α1-receptors of the rat vas deferens (Rattus norvegicus, UniProt P43140); test: Antagonism of α1-receptors of the rat vas deferens (phenylephrine as agonist); format: biochemical; set-up: key to nature of the competition (α1, rat vas deferens): NC means non-competitive; C means competitive; conditions: for Kb: compounds of formula (I) as hydrochlorides, read-out: pA2 (α1, rat vas deferens) (converted)
T1 construct: from tissue; host or cells: rat vas deferens
T1 sequence (P43140 1-466): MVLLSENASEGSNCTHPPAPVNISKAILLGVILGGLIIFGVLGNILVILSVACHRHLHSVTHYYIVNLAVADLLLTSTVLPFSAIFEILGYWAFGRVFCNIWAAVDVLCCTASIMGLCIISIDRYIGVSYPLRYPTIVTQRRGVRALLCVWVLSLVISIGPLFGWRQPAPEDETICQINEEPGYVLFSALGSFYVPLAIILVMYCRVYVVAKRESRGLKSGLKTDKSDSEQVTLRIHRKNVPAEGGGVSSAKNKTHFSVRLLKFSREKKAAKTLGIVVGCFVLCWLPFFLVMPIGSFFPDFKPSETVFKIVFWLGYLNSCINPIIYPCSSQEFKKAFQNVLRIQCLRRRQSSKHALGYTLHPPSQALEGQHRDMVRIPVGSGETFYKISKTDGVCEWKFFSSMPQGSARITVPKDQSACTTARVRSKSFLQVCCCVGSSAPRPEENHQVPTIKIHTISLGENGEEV
Experimental: Phenylephrine was used as agonist on the α1 -adrenergic receptors whereby both the rat vas deferens and the pulmonary artery of the rabbit were contracted. […] The pA2 value was determined by using the method of Arunlakshana and Schield (1959) cited above. The nature of the competition is also given (NC means non-competitive, C means competitive).

[2] = target: α1-receptors of the pulmonary artery of rabbit; test: Antagonism of α1-receptors of the pulmonary artery of rabbit (norepinephrine as agonist); format: biochemical; conditions: compounds of formula (I) as hydrochlorides
From the text: On the α1 -receptors of the pulmonary artery, a contraction is elicited by norepinephrine which is inhibited by antagonists.

[3] = test system: norepinephrine turnover in the frontal cortex; test: Norepinephrine turnover in the frontal cortex after α-methyl-p-tyrosine; format: in vivo, rat; conditions: for Kb (fractional rate constant) / Tt (catecholamine turnover time) / TRCA (catecholamine turnover rate): NE, with α-MPT; for TRCA (catecholamine turnover rate): ** p 0.01, *** p 0.001 vs control; for NE content: α-MPT 320 mg/kg i.p. pre-treatment, 4 animals
Experimental: (§1) Male rates with 100 g of body-weight were intraperitoneally pre-treated (at minute 0) with 320 mg/kg of α-methyl-p-tyrosine. […] After centrifuging, the norepinephrine content (frontal cortex) or the dopamine content (striatum) of the supernatant, respectively, was determined by using the method of the […] liquid chromatography-electrochemical detection. […] The significance level of the difference related to the control group was also determined (** p 0.01; *** p 0.001).

[4] = test system: dopamine turnover in the striatum; test: Dopamine turnover in the striatum after α-methyl-p-tyrosine; format: in vivo, rat; conditions: for Kb (fractional rate constant) / Tt (catecholamine turnover time) / TRCA (catecholamine turnover rate): DA, with α-MPT; for TRCA (catecholamine turnover rate): ** p 0.01 vs control; for DA content: α-MPT 320 mg/kg i.p. pre-treatment, 4 animals
Experimental: as §1

[5] = target: α1-receptors of the pulmonary artery of rabbit; test: Antagonism of α1-receptors of the pulmonary artery of rabbit (phenylephrine as agonist); format: biochemical; conditions: compounds of formula (I) as hydrochlorides
Experimental: The action of known α-adrenergic receptor-blocking
on the α1 -receptors of the rat vas deferens and of
the pulmonary artery of rabbit against phenylephrine
Phenylephrine was used as agonist on the α1 -adrenergic receptors whereby both the rat vas deferens and the pulmonary artery of the rabbit were contracted. This concractile effect was inhibited by antagonists. The pA2 value was determined by using the method of Arunlakshana and Schield (1959) cited above. The nature of the competition is also given (NC means non-competitive, C means competitive).

[6] = target: T2, α2-receptors of the rat vas deferens (Rattus norvegicus, UniProt P22909); test: Antagonism of α2-receptors of the rat vas deferens (xylazine as agonist); format: biochemical; conditions: for Kb: read-out: pA2 (α2, rat vas deferens) (converted)
T2 construct: from tissue; host or cells: rat vas deferens
T2 sequence (P22909 1-465): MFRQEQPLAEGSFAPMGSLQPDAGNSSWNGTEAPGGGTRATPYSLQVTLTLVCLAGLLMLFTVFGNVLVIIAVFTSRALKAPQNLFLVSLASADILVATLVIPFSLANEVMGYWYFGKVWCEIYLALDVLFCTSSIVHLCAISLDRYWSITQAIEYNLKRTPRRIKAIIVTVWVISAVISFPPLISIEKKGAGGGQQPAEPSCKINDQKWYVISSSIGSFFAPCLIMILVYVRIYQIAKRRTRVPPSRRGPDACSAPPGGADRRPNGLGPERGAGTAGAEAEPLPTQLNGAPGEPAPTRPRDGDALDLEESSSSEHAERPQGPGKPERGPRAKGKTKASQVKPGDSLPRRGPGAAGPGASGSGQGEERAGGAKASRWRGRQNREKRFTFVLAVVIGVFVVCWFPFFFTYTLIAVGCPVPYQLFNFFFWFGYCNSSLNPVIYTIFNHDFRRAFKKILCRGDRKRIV
Experimental: The action of known α-adrenergic receptor-blocking agents and the
formula (I) on the α2 -receptors of the rat vas deferens
(xylazine as agonist) and of the
The tissues were suspended at 37° C. in an organ bath containing 5 ml of Krebs solution. […] Both the compounds of formula (I) and the reference substances were tested against xylazine (on the rat vas daferens) as well as against […] (on the longitudinal smooth muscle preparation from the guinea pig ileum). The amplitude of the contraction response caused by the stimulation is inhibited on the α2 -adrenergic receptors by xylazine or norepinephrine.

[7] = test system: α2-receptors (vs α1-receptors) of the rat vas deferens; test: Selectivity against the α2-receptors on the rat vas deferens (from Tables 1 and 2); format: biochemical; conditions: calculated from Tables 1 and 2, hydrochlorides
From the text: The pA2 values concerning the α1 -receptor of the antagonists were divided by the pA2 values concerning the α2 -receptor of the antagonists (α1 /α2).

[8] = xylazine as agonist, compounds of formula (I) as hydrochlorides, (n) in brackets

- nature of the competition (α1, rat vas deferens) [1]: NC
- Kb [1]: 11200 nM
- pA2 (α1, pulmonary artery of rabbit) [2]: 5.29 ± 0.20
SMILES: O[C@@H]1CC[C@H]2CN3CCc4cc5c(cc4[C@H]3C[C@H]2C1)OCO5 (relative stereo) [Example 26, 14α-hydroxy-7,8-methylenedioxyalloberban]
- Kb (fractional rate constant) [3]: 0.740 h⁻¹
- Tt (catecholamine turnover time) [3]: 1.35 h
- TRCA (catecholamine turnover rate) [3]: 0.64 ± 0.03 nmole/g, h^-1
- NE content [3]: 0.87 ± 0.05 nmol/g
- Kb (fractional rate constant) [4]: 0.776 h⁻¹
- Tt (catecholamine turnover time) [4]: 1.28 h
- TRCA (catecholamine turnover rate) [4]: 37.27 ± 3.62 nmole/g, h^-1
- DA content [4]: 48.03 ± 4.66 nmol/g

- nature of the competition (α1, rat vas deferens) [1]: C
SMILES: Cc1ccc(N(CC2=NCCN2)c2cccc(O)c2)cc1 [Phentolamine, reference compound]

SMILES: c1ccc2c(c1)OCC(C1=NCCN1)O2 (centres unmarked) [Idazoxan, reference compound]
- nature of the competition (α1, rat vas deferens) [1]: NC
- Kb [1]: 1000 nM
- pA2 (α1, pulmonary artery of rabbit) [2]: 6.03 ± 0.11

- pA2 (α1, pulmonary artery of rabbit) [5]: 4.61 ± 0.2
SMILES: COC(=O)C1C(O)CCC2CN3CCc4cc5c(cc4C3CC21)OCO5 (stereo not drawn) [Example 6, methyl 14α-hydroxy-7,8-methylenedioxyberban-13-carboxylate]

- Kb [6, 8]: 145 nM
- Relative activity, vas deferens ([6]; α2-inhibiting effect relative to yohimbine = 1.0): 0.13
- nature of the competition (α1, rat vas deferens) [1]: NC
- Kb [1]: 52.5 nM
- Selectivity α1/α2 [7]: 0.36
SMILES: CCn1ccnc1CC1COc2ccccc2O1 (centres unmarked) [Imiloxan, reference compound]

- Relative activity, vas deferens [6]: 0.05
- Kb [6, 8]: 380 nM
SMILES: CCOc1cc2c(cc1OCC)[C@H]1C[C@H]3C[C@@H](O)CC[C@H]3CN1CC2 (relative stereo) [Example 11, 14β-hydroxy-7,8-diethoxyalloberban]

- nature of the competition (α1, rat vas deferens) [1]: NC
- Kb [1]: 14100 nM
- pA2 (α1, pulmonary artery of rabbit) [2]: 4.83 ± 0.52
SMILES: O[C@H]1CC[C@H]2CN3CCc4cc5c(cc4[C@H]3C[C@H]2C1)OCO5 (relative stereo) [Example 25, 14β-hydroxy-7,8-methylenedioxyalloberban]

SMILES: COC(=O)[C@@H]1[C@H]2C[C@H]3c4[nH]c5ccccc5c4CCN3C[C@@H]2CC[C@@H]1O [Yohimbine, reference compound]
- nature of the competition (α1, rat vas deferens) [1]: NC
- pA2 (α1, pulmonary artery of rabbit) [5]: 5.59 ± 0.4
- pA2 (α1, pulmonary artery of rabbit) [2]: 5.81 ± 0.37
- Kb (fractional rate constant) [3]: 0.880 h⁻¹
- Tt (catecholamine turnover time) [3]: 1.13 h
- TRCA (catecholamine turnover rate) [3]: 0.87 ± 0.06 nmole/g, h^-1
- NE content [3]: 0.99 ± 0.07 nmol/g
- Kb (fractional rate constant) [4]: 0.906 h⁻¹
- Tt (catecholamine turnover time) [4]: 1.10 h
- TRCA (catecholamine turnover rate) [4]: 58.40 ± 5.47 nmole/g, h^-1
- DA content [4]: 64.46 ± 6.04 nmol/g

- Relative activity, vas deferens [6]: 0.01
- pA2 (α2, rat vas deferens) [6, 8]: 5.74 ± 0.11
SMILES: Oc1cc2c(cc1O)[C@H]1C[C@H]3C[C@@H](O)CC[C@H]3CN1CC2 (relative stereo) [As hydrobromide]

- nature of the competition (α1, rat vas deferens) [1]: NC
- Kb [1]: 3090 nM
SMILES: CCOC(=O)C1C(O)CCC2CN3CCc4cc5c(cc4C3CC21)OCO5 (stereo not drawn) [Example 17, ethyl 14β-hydroxy-7,8-methylenedioxyalloberban-13-carboxylate]

- nature of the competition (α1, rat vas deferens) [1]: NC
- Kb [1]: 661 nM
- pA2 (α1, pulmonary artery of rabbit) [5]: 4.68 ± 0.27
SMILES: COC(=O)C1C(O)CCC2CN3CCc4cc5c(cc4C3CC21)OCO5 (stereo not drawn) [Example 1, methyl 14-β-hydroxy-7,8-methylenedioxy-alloberban-13-carboxylate]
